# Measurements: ChEMBL document CHEMBL2176907, “Identification of multiple 5-HT₄ partial agonist clinical candidates for the treatment of Alzheimer's disease” (J Med Chem, 2012)
# Active and inactive are the calls of the source. No cut-off for these calls is given here.
# Experiments:
# Rattus norvegicus [1] = experiment: Gastrointestinal toxicity in female Sprague-Dawley rat assessed as reduction in body weight at 30 mg/kg administered as repeated dose for 7 days measured up to 1 month; format: organism-based; parameters: dose 30 mg/kg; conditions: in vivo, 168 h
# Rattus norvegicus [2] = experiment: Displacement of [3H]SB207145 from 5HT4 receptor in sc dosed Sprague-Dawley rat striatal membrane incubated for 45 mins prior to [3H]SB207145-adminsitration measured after 15 mins; format: functional, organism-based; conditions: Striatum
# Rattus norvegicus [3] = experiment: Gastrointestinal toxicity in Sprague-Dawley rat assessed as decrease in food intake administered as repeated dose for 7 days measured up to 1 month; format: organism-based; conditions: in vivo, 168 h
# [4] = Intrinsic clearance in rat liver microsomes; format: ADME, Microsome; conditions: read-out: CLH
# Canis familiaris [5] = experiment: Cardiotoxicity in beagle dog assessed as increase in systolic blood pressure at 0.05 mg/kg administered as repeated dose for 7 days measured up to 1 month; format: toxicity, organism-based, Canis lupus familiaris, Artery; parameters: dose 0.05 mg/kg; conditions: in vivo, 168 h
# [6] = Ratio of free drug concentration in brain to free drug concentration in plasma in sc dosed Sprague-Dawley rat; format: ADME, organism-based; conditions: read-out: K(p,uu,brain)
# [7] = target: T1, 5-hydroxytryptamine receptor 4 (Homo sapiens, UniProt Q13639); experiment: biochemical
# Description: Displacement of [3H]GR113808 from human 5HT4B receptor expressed in HEK293 cells after 30 mins by liquid scintillation counting
# [8] = Intrinsic clearance in dog liver microsomes; format: ADME, Canis lupus familiaris, Microsome; conditions: read-out: CLH
# Canis familiaris [9] = experiment: Neurotoxicity in beagle dog assessed as convulsions at 30 mg/kg administered as repeated dose for 7 days measured up to 1 month; format: toxicity, organism-based, Canis lupus familiaris; parameters: dose 30 mg/kg; conditions: in vivo, 168 h
# [10] = target: T1, 5-hydroxytryptamine receptor 4; experiment: biochemical; remark: listed apart in the source
# Description: Displacement of [3H]GR113808 from human 5HT4E receptor expressed in CHO cells after 30 mins by liquid scintillation counting
# Nucleic Acid [11] = experiment: Ratio of drug uptake in CSF to free drug concentration in brain in sc dosed Sprague-Dawley rat; format: ADME, organism-based; conditions: in vivo
# [12] = target: T2, 5-hydroxytryptamine receptor 4 (Rattus norvegicus, UniProt Q62758)
# Description: Agonist activity at rat 5HT4E receptor expressed in HEK293 cells assessed as increase in cAMP production after 30 mins by HTRF assay
# Plasma = experiment: Free AUC (0 to 4 hrs) in sc dosed Sprague-Dawley rat plasma by LC-MS/MS analysis; format: ADME, organism-based; conditions: in vivo
# Rattus norvegicus [13] = experiment: Receptor occupancy of 5HT4 receptor in Sprague-Dawley rat brain at 5 mg/kg, sc up to 4 hrs; format: functional; conditions: route subcutaneous
# Rattus norvegicus [14] = experiment: Procognitive activity in Sprague-Dawley rat assessed as increase in acetylcholine level in prefrontal cortex at 5 mg/kg, sc after 3 hrs by brain microdialysis relative to control; format: functional, organism-based; parameters: dose 5 mg/kg
# [15] = Oral bioavailability in dog; format: ADME, organism-based, Canis lupus familiaris; conditions: in vivo
# [16] = Clearance in iv dosed rat; format: ADME, organism-based; conditions: in vivo
# [17] = target: T2, 5-hydroxytryptamine receptor 4; remark: listed apart in the source
# Description: Agonist activity at rat 5HT4S receptor expressed in HEK293 cells assessed as increase in cAMP production after 30 mins by HTRF assay
# [18] = target: T2, 5-hydroxytryptamine receptor 4; remark: listed apart in the source
# Description: Displacement of [3H]GR113808 from 5HT4 receptor in rat striatal membrane after 30 mins by liquid scintillation counting
# Rattus norvegicus [19] = experiment: Gastrointestinal toxicity in male Sprague-Dawley rat assessed as mucosal injury at 100 mg/kg administered as repeated dose for 7 days measured up to 1 month; format: organism-based; parameters: dose 100 mg/kg; conditions: in vivo, 168 h
# [20] = Intrinsic clearance in human liver microsomes; format: ADME, Microsome; conditions: read-out: CLH
# [21] = Apparent permeability from apical to basal side of RRCK cells at 2 uM after 2 hrs by transwell assay; format: ADME, cell-based, Canis lupus familiaris, MDCKII-LE; conditions: dog, MDCK
# Rattus norvegicus [22] = experiment: Gastrointestinal toxicity in male Sprague-Dawley rat assessed as reduction in body weight at 100 mg/kg administered as repeated dose for 7 days measured up to 1 month; format: organism-based; parameters: dose 100 mg/kg; conditions: in vivo, 168 h
# Canis familiaris [23] = experiment: Gastrointestinal toxicity in beagle dog assessed as decrease in food intake administered as repeated dose for 7 days measured up to 1 month; format: organism-based, Canis lupus familiaris; conditions: in vivo, 168 h
# [24] = target: T1, 5-hydroxytryptamine receptor 4
# Description: Agonist activity at human 5HT4A receptor expressed in HEK293 cells assessed as increase in cAMP production after 30 mins by HTRF assay
# [25] = target: T2, 5-hydroxytryptamine receptor 4; remark: listed apart in the source
# Description: Agonist activity at rat 5HT4L receptor expressed in HEK293 cells assessed as increase in cAMP production after 30 mins by HTRF assay
# [26] = target: T1, 5-hydroxytryptamine receptor 4; remark: listed apart in the source
# Description: Agonist activity at human 5HT4B receptor expressed in HEK293 cells assessed as increase in cAMP production after 30 mins by HTRF assay
# MDR1 = experiment: in vitro; conditions: dog, MDCK-MDR1
# Description: Efflux ratio of permeability from basal to apical to apical to basal side of MDCK cells expressing MDR1 at 2 uM after 5 hrs by transwell assay
# Canis familiaris [27] = experiment: Gastrointestinal toxicity in beagle dog assessed as emesis at 20 mg/kg administered as repeated dose for 7 days measured up to 1 month; format: organism-based, Canis lupus familiaris; parameters: dose 20 mg/kg; conditions: in vivo, 168 h
# Rattus norvegicus [28] = experiment: Gastrointestinal toxicity in female Sprague-Dawley rat assessed as mucosal injury at 30 mg/kg administered as repeated dose for 7 days measured up to 1 month; format: organism-based; parameters: dose 30 mg/kg; conditions: in vivo, 168 h
# [29] = AUC (0 to 4 hrs) in sc dosed Sprague-Dawley rat CSF by LC-MS/MS analysis; format: ADME, organism-based; parameters: time < 4 hr, route subcutaneous
# [30] = target: T1, 5-hydroxytryptamine receptor 4; remark: listed apart in the source
# Description: Agonist activity at human 5HT4E receptor expressed in HEK293 cells assessed as increase in cAMP production after 30 mins by HTRF assay
# Brain = experiment: Free AUC (0 to 4 hrs) in sc dosed Sprague-Dawley rat brain by LC-MS/MS analysis; format: ADME, organism-based; conditions: in vivo
# [31] = target: T1, 5-hydroxytryptamine receptor 4; experiment: biochemical; remark: listed apart in the source
# Description: Displacement of [3H]GR113808 from human 5HT4D receptor expressed in HEK293 cells after 30 mins by liquid scintillation counting
# Nucleic Acid [32] = experiment: Ratio of drug uptake in CSF to free drug concentration in plasma in sc dosed Sprague-Dawley rat; format: ADME, organism-based; conditions: in vivo
# [33] = Oral bioavailability in rat; format: ADME, organism-based; conditions: in vivo
# [34] = Clearance in iv dosed dog; format: ADME, organism-based, Canis lupus familiaris; conditions: in vivo
# [35] = target: T1, 5-hydroxytryptamine receptor 4; experiment: biochemical; remark: listed apart in the source
# Description: Displacement of [3H]GR113808 from human 5HT4A receptor expressed in HEK293 cells after 30 mins by liquid scintillation counting
# [36] = target: T1, 5-hydroxytryptamine receptor 4; experiment: Agonist activity at human 5HT4D receptor expressed in HEK293 cells assessed as cAMP production after 30 mins by HTRF assay; format: functional, cell-based
# [37] = target: T1, 5-hydroxytryptamine receptor 4; experiment: Agonist activity at human 5HT4D receptor expressed in HEK293 cells assessed as cAMP production after 30 mins by HTRF assay relative to 5HT; format: functional, cell-based
# CYP2D6 = CYP2D6 (Homo sapiens, UniProt P10635); experiment: Inhibition of CYP2D6 in human liver microsomes using dextromethorphan as substrate at 3 uM; format: ADME, Microsome; conditions: probe dextromethorphan
# CYP2D6, sequence (P10635 whole entry): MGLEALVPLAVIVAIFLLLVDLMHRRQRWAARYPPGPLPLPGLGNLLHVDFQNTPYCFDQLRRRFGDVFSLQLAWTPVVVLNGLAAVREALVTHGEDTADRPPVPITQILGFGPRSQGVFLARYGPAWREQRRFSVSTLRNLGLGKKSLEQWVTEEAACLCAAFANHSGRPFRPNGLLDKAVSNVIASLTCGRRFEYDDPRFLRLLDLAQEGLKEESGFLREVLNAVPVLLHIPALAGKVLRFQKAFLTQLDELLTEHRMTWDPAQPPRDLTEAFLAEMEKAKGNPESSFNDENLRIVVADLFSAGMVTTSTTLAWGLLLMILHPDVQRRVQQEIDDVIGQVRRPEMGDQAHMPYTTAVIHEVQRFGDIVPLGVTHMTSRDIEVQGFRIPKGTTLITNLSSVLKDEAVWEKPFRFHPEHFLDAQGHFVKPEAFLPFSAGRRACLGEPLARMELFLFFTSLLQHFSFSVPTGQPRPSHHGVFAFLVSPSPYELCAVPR
# T1 sequence (Q13639 whole entry): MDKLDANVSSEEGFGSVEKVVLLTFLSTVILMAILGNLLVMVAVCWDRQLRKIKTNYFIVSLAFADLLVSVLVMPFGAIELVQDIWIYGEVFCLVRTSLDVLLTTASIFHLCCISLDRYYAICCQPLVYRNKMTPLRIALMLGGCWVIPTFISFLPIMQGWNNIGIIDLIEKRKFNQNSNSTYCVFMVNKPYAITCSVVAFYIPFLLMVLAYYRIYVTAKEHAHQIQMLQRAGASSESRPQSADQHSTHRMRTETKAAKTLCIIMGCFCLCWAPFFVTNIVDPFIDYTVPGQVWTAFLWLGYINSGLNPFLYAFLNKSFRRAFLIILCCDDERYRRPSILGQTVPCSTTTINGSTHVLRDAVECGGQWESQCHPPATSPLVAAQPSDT
# T2 sequence (Q62758 whole entry): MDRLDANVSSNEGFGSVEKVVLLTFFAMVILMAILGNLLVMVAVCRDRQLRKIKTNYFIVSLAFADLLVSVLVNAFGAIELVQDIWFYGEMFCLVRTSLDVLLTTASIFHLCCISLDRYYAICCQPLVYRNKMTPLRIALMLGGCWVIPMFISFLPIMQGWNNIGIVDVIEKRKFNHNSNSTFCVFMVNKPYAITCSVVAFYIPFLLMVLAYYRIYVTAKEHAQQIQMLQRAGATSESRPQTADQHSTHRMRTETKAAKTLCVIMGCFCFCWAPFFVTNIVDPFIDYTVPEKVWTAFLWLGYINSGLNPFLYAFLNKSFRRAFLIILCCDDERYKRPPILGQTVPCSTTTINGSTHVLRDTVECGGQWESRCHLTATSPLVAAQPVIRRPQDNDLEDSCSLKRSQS
smiles,measurement,setting,value
CC1(C)C(=O)N(C(=O)NCC2CCN(CC3(O)CCOCC3)CC2)c2cc(F)ccc21 [PF-03382792],Activity,Rattus norvegicus [1],Toxic
same,Activity,Rattus norvegicus [2],Dose-dependent effect
same,Activity,Rattus norvegicus [3],Toxic
same,CLint scaled,[4],42.7 mL/min/kg
same,Activity,Canis familiaris [5],Toxic
same,Kp uu,[6],1.8
same,Ki,[7],6.8 nM
same,CLint scaled,[8],35.4 mL/min/kg
same,Activity,Canis familiaris [9],Toxic
same,Ki,[10],6.3 nM
same,Ratio,Nucleic Acid [11],2.1
same,EC50,[12],2.15 nM
same,fAUC,Plasma,1.669 µM·h
same,Occ,Rattus norvegicus [13],>90%
same,Activity,Rattus norvegicus [14],Active
same,bioavailability,[15],51%
same,clearance,[16],104 mL/min/kg
same,EC50,[17],1.15 nM
same,Ki,[18],3.9 nM
same,Activity,Rattus norvegicus [19],Toxic
same,CLint scaled,[20],25.4 mL/min/kg
same,"Papp A→B at 2 h, 2 µM",[21],> 27 ×10⁻⁶ cm/s
same,Activity,Rattus norvegicus [22],Toxic
same,Activity,Canis familiaris [23],Toxic
same,EC50,[24],0.8 nM
same,EC50,[25],1.52 nM
same,EC50,[26],1.3 nM
same,"efflux ratio at 5 h, 2 µM",MDR1,1.37
same,Activity,Canis familiaris [27],Toxic
same,Activity,Rattus norvegicus [28],Toxic
same,AUC(0-t) at 4 h,[29],1.38 µM·h
same,EC50,[30],1.2 nM
same,fAUC,Brain,2.922 µM·h
same,Ki,[31],2.7 nM
same,Ratio,Nucleic Acid [32],0.8
same,bioavailability,[33],100%
same,clearance,[34],12.4 mL/min/kg
same,Ki,[35],4.6 nM
same,EC50,[36],0.9 nM
same,Emax,[37],35%
CC(C)COc1cccc2onc(OCC3CCN(CC4(O)CCOCC4)CC3)c12,CLint scaled,[20],72 mL/min/kg
same,"Papp A→B at 2 h, 2 µM",[21],3.8 ×10⁻⁶ cm/s
same,inhibition at 3 µM,CYP2D6,54%
same,Ki,[31],0.36 nM
same,EC50,[36],0.98 nM
same,Emax,[37],85%
